According to PMC6591251, “Discovery of potent necroptosis inhibitors targeting RIPK1 kinase activity for the treatment of inflammatory disorder and cancer metastasis” (Cell Death & Disease, 2019):

Legend:
[1] = test system: B16-F10 or RFP-LL/2 cells; assay: Proliferation rate and invasion ability without endothelial monolayer; type: cell-based, mouse; conditions: B16-F10 or RFP-LL/2, in vitro
Protocol: Studies have shown that RIPK1 kinase activity is involved in the promotion of tumor metastasis through death receptor 6-dependent necroptosis of endothelial cells[22] or VEGF-dependent activation of vascular permeability. We thus evaluated the therapeutic effect of PK68 on lung metastasis of mouse melanoma B16-F10 cells in vivo. […] After 2 weeks, the metastasis of B16-F10 cells was measured by histological analysis and assessed as the number of metastasis nodules in the lung. […] Two weeks after intravenous injection of RFP-LL/2 cells, RFP^+ LL/2 cells were isolated from the tumor tissues by flow cytometer sorting and no signal of phosphorylated RIPK1 was detected in these tumors cells (Supplementary Fig. 22). Six hours after intravenous injection of RFP-LL/2 cells into C57BL/6 mice, the RFP-LL/2 cells have extravasated through blood vessels into the lung (Supplementary Fig. 23). […] Further, we evaluated the effect of PK68 on the tumor cell transmigration across the cultured endothelium. We isolated CD31^+ endothelial cells from the lungs and performed the transendothelial migration assay as previously reported. […]
(A-B) B16-F10 and RFP-LL/2 cells were pretreated with indicated compounds for 1h and then cell viability was measured by cell Titer-Glo. (C) B16-F10 and RFP-LL/2 cells were pre-treated with indicated compounds and invasion ability was measured by the transwell assay.

TNIK [2] = biological target: T1, TNIK (Homo sapiens, UniProt Q9UKE5); assay: RBC kinase panel; type: biochemical; set-up: purchased Reaction Biology Corporation
T1 sequence (Q9UKE5 whole entry): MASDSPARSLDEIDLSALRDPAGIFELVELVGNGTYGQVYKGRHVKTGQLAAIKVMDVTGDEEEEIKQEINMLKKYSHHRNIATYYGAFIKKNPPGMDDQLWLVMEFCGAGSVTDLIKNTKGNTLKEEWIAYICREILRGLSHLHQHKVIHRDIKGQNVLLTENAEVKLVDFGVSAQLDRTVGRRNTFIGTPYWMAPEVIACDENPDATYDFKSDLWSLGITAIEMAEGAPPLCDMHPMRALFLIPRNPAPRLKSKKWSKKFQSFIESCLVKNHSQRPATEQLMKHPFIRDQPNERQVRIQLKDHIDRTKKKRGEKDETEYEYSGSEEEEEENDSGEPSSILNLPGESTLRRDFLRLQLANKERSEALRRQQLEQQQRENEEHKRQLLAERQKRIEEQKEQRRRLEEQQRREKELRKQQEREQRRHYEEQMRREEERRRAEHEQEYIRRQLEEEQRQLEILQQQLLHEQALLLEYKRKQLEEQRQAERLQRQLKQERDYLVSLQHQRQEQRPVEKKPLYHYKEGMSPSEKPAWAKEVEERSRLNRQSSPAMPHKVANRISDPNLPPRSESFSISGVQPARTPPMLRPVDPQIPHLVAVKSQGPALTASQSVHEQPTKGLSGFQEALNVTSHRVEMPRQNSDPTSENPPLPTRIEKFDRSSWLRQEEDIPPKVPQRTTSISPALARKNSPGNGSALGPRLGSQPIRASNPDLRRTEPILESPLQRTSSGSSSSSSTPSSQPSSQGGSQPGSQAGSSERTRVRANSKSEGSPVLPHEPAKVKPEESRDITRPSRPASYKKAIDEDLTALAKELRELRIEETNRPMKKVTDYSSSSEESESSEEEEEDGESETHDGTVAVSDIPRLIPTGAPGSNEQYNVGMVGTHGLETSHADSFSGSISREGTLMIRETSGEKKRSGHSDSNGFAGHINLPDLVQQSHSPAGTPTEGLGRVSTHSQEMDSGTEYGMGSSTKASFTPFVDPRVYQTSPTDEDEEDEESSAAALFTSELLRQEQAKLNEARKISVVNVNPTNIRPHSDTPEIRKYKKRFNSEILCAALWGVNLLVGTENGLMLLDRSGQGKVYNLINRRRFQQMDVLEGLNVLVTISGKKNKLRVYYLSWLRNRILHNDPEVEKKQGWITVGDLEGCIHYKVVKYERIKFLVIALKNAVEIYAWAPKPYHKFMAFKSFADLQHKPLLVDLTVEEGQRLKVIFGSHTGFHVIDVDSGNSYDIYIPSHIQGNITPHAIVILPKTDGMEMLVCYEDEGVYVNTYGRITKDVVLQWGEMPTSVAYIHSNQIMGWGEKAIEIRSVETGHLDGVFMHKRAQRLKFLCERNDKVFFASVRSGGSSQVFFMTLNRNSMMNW
Protocol: (§1) PK68 was tested at 1 μM in duplicate against a panel of 369 human kinases at Reaction Biology Corporation. Results are viewed in the human kinome phylogenetic tree.
(§2) ^a Compound PK68 was tested at 1 μM in duplicate against 369 kinases using the RBC kinase panel service of Reaction Biology Corporation. All the ATP concentrations used were 10 μM. […] Full protocol details are available at http://www.reactionbiology.com.

TRKA [3] = biological target: T2, TRKA (Homo sapiens, UniProt P04629); assay: RBC kinase panel; type: biochemical; set-up: purchased Reaction Biology Corporation
T2 sequence (P04629 33-796): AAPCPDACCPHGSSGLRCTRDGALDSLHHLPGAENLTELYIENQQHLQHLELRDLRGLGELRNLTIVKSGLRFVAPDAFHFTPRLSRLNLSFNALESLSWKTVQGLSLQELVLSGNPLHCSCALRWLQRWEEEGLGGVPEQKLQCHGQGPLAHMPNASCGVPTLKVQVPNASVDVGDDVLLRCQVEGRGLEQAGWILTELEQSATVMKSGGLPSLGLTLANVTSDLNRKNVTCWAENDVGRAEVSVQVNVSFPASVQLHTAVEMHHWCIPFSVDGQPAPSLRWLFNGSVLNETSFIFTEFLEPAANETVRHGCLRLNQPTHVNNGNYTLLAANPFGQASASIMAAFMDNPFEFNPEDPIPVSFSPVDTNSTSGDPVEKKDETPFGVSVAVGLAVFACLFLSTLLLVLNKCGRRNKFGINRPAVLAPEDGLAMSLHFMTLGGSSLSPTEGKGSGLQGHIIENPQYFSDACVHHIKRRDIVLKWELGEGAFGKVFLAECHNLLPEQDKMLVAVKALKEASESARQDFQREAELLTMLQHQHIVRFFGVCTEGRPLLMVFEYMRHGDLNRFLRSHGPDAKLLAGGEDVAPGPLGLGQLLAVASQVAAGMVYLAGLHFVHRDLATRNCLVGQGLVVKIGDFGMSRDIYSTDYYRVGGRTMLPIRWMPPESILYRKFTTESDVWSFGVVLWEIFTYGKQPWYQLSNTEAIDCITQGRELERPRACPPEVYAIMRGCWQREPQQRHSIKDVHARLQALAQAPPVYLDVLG
Protocol: as §1, §2

TNIK [4] = biological target: T1, TNIK; assay: Kinase activity assay at a CRO; type: biochemical; conditions: CRO company
Protocol: (§3) Further, we evaluated the selectivity of PK68 against a panel of 369 kinases provided by Reaction Biology (at 1000 nM). […] In addition, we followed on some of the active “hits” from the kinome scan. PK68 was tested against TNIK and TRKA by a reputable CRO company. […] RIPK1 is known to mediate NF-κB activation independently of its kinase activity. […] It has been shown that homodimerization of RIPK3 or MLKL induced by the dimerizer leads to necroptosis bypassing the upstream signals[10],[37]. […] This dimerized RIPK3-induced necroptosis was blocked by RIPK3 inhibitor GSK873 but was not blocked by the RIPK1 inhibitor necrostatin-1. […] (Fig. 4e).
(§4) Supplementary Figure 20. The kinase activity assays of PK68 in TNIK and TRKA in vitro, Staurosporine as control.
(§5) (A) The IC50 values were obtained by increasing concentrations of PK68 and Staurosporine in TNIK. (B) The IC50 values were obtained by increasing concentrations of PK68 and Staurosporine in TRKA.

TRKA [5] = biological target: T2, TRKA; assay: Kinase activity assay at a CRO; type: biochemical; conditions: CRO company
Protocol: as §3, §4, §5

CC(=O)Nc1nc2ccc(-c3cnc(C)c(NC(=O)OC4CCCCC4)c3)cc2s1 [PK68, cyclohexyl (5-(2-acetamidobenzo[d]thiazol-6-yl)-2-methylpyridin-3-yl)carbamate]
proliferation rate and invasion ability [1]: no obvious influence | Activity% (TNIK [2]; 1 μM, ATP 10 μM, Data1, Data2): 38.77% | activity at 1 µM (TNIK [2]; 1 μM, ATP 10 μM, Data1, Data2): 39% | inhibition at 1 µM (TNIK [2]; at 1000 nM): > 50% | Activity% (TRKA [3]; 1 μM, ATP 10 μM, Data1, Data2): 28.42% | activity at 1 µM (TRKA [3]; 1 μM, ATP 10 μM, Data1, Data2): 29.1% | inhibition at 1 µM (TRKA [3]; at 1000 nM): > 50% | IC50 (TNIK [4]): ~10 µM | IC50 (TRKA [5]): ~10 µM
